What was measured:
cells [1] = details: Homo sapiens, SH-SY5Y, 2 h, read-out: FC
cells [2] = details: Homo sapiens, SH-SY5Y, 2 h, read-out: FC; remark: listed apart in the source
Histone deacetylase 2 [3] = molecular target: T1, Histone deacetylase 2 (Homo sapiens, UniProt Q92769); assay: Inhibition of full length human recombinant C-terminal His-tagged HDAC2 expressed in baculovirus infected sf9 cells using fluorogenic HDAC substrate 3 after 30 mins by fluorescence assay
[4] = molecular target: T2, Protein deacetylase HDAC6 (Homo sapiens, UniProt Q9UBN7); assay: Inhibition of full length human recombinant N-terminal GST-tagged HDAC6 expressed in baculovirus infected sf9 cells using fluorogenic HDAC substrate 3 after 30 mins by fluorescence assay
T2 sequence (Q9UBN7 whole entry): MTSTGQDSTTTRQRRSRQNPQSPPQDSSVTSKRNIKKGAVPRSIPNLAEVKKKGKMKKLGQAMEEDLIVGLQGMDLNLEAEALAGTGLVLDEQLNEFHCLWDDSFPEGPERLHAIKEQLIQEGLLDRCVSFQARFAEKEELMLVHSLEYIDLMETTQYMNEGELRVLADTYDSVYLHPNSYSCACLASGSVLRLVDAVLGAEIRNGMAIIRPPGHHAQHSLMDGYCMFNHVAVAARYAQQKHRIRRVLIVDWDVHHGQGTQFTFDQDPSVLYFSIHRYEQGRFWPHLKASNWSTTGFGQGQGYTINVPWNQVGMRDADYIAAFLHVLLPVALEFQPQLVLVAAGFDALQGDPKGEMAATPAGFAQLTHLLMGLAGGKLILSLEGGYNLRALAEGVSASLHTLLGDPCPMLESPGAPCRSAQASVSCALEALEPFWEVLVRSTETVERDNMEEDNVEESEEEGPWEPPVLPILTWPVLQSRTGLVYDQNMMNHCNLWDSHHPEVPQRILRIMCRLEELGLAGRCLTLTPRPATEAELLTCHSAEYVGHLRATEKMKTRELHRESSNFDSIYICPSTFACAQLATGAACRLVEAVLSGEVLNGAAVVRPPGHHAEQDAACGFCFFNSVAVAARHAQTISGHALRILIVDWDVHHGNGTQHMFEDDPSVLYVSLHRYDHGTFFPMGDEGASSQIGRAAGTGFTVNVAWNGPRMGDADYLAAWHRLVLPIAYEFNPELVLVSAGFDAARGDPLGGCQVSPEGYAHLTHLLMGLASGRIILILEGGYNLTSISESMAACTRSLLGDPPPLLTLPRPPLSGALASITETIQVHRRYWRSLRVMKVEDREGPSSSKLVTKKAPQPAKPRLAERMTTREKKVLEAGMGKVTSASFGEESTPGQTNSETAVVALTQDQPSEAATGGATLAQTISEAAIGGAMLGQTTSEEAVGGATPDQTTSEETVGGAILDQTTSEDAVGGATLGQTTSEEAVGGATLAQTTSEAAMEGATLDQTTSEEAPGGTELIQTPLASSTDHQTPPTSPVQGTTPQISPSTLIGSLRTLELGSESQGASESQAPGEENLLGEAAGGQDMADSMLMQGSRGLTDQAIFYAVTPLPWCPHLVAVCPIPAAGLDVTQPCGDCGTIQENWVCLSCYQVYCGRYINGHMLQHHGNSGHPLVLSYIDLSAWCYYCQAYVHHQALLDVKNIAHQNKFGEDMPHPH

[5] = molecular target: T3, cGMP-specific 3',5'-cyclic phosphodiesterase (Homo sapiens, UniProt O76074); assay: Inhibition of full length human recombinant N-terminal GST-tagged PDE5A1 expressed in baculovirus infected sf9 cells using cGMP as substrate after 30 mins by fluorescence assay
Histone deacetylase 1 [6] = molecular target: T4, Histone deacetylase 1 (Homo sapiens, UniProt Q13547); assay: Inhibition of full length human recombinant C-terminal FLAG/His-tagged HDAC1 expressed in baculovirus infected sf9 cells using fluorogenic HDAC substrate 3 after 30 mins by fluorescence assay
[7] = Effective permeability of the compound at 50 uM after 18 hrs by UV spectroscopy based PAMPA; type: ADME; details: read-out: Peff
[8] = Cytotoxicity against human THLE2 cells after 72 hrs by vialight cell proliferation assay; type: cell-based, THLE-2; details: read-out: LC50
[9] = molecular target: Histone deacetylase 3/Nuclear receptor corepressor 2 (HDAC3/NCoR2) (Homo sapiens, UniProt O15379); assay: Inhibition of full length human recombinant C-terminal His-tagged HDAC3/N-terminal GST-tagged NCOR2 (95 to 489 residues) expressed in baculovirus infected sf9 cells using fluorogenic HDAC substrate 3 after 30 mins by fluorescence assay
cells [10] = details: Homo sapiens, SH-SY5Y, 2 h, read-out: FC; remark: listed apart in the source
[11] = molecular target: T3, cGMP-specific 3',5'-cyclic phosphodiesterase; assay: Inhibition of PDE5A (unknown origin)
[12] = molecular target: T2, Protein deacetylase HDAC6; assay: Inhibition of HDAC6 (unknown origin)
Histone deacetylase 1 [13] = molecular target: T4, Histone deacetylase 1; assay: Inhibition of HDAC1 (unknown origin)
Histone deacetylase 3 = Histone deacetylase 3 (Homo sapiens, UniProt O15379); assay: Inhibition of HDAC3 (unknown origin)
Histone deacetylase 2 [14] = molecular target: T1, Histone deacetylase 2; type: ADME
[15] = Inhibition of class-1 HDAC in human SH-SY5Y cells assessed as induction of AcH3K9 level at 500 nM after 0.5 to 2 hrs by Western blot analysis; type: cell-based; details: 0.5 µM
[16] = molecular target: cGMP-inhibited 3',5'-cyclic phosphodiesterase 3A (Homo sapiens, UniProt Q14432); assay: Inhibition of PDE3A (unknown origin) using FAM-cGMP as substrate by fluorescence assay
cGMP-inhibited 3',5'-cyclic phosphodiesterase 3A, sequence (Q14432 whole entry): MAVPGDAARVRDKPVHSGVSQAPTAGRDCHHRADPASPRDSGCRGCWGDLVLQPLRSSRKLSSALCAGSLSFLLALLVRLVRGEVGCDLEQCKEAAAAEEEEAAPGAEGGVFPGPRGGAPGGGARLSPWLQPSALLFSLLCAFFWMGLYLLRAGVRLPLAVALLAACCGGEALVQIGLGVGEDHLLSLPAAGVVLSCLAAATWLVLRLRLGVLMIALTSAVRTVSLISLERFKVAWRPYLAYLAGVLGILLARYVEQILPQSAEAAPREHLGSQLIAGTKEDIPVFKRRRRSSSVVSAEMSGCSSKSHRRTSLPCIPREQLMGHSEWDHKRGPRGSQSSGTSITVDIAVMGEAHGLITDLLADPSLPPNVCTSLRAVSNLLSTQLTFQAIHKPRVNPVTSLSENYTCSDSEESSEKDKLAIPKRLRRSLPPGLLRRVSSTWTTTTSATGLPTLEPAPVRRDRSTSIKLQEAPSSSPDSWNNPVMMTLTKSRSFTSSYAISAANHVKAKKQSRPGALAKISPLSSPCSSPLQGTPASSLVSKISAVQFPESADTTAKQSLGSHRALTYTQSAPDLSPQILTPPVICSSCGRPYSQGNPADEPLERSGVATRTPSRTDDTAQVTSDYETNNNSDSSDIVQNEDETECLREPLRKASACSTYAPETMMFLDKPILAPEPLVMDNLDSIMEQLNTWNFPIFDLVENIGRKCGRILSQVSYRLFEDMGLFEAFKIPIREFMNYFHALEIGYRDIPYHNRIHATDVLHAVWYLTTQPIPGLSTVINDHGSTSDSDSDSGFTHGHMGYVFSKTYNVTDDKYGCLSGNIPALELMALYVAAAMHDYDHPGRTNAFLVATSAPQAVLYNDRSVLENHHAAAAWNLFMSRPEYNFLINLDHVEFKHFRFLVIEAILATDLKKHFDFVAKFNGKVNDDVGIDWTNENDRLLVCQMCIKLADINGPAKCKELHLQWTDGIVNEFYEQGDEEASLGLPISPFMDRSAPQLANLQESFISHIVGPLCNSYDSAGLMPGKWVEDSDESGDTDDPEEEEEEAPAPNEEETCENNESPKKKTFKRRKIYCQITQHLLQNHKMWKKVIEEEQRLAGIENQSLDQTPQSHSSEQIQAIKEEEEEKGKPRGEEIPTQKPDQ

Histone deacetylase 3/Nuclear receptor corepressor 2 (HDAC3/NCoR2), sequence (O15379 whole entry, the tested form may be a part): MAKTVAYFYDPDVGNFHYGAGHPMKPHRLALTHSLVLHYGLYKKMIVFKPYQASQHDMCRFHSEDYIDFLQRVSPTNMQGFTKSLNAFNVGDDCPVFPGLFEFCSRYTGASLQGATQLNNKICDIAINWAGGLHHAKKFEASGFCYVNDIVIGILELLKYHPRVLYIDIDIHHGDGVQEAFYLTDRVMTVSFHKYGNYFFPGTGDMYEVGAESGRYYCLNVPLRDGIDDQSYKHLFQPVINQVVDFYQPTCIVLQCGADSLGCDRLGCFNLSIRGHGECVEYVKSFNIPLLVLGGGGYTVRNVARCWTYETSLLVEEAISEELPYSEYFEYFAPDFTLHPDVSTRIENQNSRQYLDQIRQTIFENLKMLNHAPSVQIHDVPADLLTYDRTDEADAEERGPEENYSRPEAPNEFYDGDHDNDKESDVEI
Histone deacetylase 3/Nuclear receptor corepressor 2 (HDAC3/NCoR2), sequence (Q9Y618 whole entry, further chain, the tested form may be a part): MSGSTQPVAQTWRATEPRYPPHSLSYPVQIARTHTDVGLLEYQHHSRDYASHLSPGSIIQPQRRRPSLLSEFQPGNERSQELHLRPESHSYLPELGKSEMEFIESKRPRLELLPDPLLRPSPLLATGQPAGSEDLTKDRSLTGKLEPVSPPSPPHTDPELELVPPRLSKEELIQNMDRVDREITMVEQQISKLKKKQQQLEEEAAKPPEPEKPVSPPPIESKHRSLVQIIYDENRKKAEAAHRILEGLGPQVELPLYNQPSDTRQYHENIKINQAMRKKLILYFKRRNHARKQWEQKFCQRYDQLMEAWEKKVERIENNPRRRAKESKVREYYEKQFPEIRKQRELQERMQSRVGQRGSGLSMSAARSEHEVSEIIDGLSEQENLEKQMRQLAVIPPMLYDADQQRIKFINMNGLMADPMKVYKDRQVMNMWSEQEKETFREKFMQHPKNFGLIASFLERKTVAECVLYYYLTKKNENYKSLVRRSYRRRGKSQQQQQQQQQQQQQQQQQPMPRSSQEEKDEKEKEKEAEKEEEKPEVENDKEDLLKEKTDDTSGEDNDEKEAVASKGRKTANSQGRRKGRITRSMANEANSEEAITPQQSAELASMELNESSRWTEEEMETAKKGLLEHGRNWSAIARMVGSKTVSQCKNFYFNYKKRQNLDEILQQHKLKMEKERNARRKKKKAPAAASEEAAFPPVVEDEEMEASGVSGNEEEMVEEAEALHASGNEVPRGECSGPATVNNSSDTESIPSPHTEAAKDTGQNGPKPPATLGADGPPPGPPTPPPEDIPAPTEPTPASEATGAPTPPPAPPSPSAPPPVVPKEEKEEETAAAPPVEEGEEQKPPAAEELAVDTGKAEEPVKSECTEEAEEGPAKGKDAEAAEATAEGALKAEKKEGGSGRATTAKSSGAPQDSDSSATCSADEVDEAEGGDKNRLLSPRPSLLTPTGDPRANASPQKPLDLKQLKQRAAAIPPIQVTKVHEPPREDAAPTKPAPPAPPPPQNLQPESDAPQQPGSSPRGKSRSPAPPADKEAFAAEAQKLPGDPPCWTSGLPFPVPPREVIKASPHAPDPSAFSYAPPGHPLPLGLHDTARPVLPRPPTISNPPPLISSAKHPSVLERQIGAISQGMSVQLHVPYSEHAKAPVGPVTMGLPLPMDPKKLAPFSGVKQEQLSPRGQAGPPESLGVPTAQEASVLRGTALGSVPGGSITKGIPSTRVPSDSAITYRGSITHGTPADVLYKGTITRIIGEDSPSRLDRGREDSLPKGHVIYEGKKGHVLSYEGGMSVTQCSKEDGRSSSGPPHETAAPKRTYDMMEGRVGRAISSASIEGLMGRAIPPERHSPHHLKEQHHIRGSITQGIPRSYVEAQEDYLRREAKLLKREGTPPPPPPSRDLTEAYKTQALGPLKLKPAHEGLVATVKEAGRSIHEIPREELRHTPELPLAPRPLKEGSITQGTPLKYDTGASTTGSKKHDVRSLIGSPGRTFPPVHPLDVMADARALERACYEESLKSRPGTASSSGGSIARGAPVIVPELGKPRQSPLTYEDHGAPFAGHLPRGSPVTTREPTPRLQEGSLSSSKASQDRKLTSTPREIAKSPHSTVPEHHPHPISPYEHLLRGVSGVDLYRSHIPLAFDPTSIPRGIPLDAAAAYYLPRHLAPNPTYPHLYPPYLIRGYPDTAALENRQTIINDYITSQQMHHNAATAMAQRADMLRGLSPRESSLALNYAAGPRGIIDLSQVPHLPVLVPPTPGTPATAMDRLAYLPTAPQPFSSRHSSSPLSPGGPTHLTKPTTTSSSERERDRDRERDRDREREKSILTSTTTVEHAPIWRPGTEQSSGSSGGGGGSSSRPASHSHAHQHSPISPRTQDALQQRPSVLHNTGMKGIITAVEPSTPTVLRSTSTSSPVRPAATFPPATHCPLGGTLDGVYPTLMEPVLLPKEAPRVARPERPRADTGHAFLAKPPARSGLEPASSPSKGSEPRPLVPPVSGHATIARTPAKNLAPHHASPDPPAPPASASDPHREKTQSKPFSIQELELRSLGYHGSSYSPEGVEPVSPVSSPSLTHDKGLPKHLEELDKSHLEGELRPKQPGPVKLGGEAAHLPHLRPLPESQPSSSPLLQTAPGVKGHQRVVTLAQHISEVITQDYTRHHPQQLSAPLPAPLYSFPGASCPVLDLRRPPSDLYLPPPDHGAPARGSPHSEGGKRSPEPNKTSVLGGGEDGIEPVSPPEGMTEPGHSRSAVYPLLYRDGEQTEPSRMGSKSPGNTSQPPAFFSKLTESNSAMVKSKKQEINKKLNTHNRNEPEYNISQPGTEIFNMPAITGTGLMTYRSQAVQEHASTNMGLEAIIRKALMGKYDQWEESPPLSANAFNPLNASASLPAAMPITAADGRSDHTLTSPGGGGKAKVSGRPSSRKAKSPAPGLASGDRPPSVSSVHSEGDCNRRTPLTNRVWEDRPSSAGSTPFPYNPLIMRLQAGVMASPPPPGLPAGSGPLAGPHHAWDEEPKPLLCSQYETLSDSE
T1 sequence (Q92769 whole entry): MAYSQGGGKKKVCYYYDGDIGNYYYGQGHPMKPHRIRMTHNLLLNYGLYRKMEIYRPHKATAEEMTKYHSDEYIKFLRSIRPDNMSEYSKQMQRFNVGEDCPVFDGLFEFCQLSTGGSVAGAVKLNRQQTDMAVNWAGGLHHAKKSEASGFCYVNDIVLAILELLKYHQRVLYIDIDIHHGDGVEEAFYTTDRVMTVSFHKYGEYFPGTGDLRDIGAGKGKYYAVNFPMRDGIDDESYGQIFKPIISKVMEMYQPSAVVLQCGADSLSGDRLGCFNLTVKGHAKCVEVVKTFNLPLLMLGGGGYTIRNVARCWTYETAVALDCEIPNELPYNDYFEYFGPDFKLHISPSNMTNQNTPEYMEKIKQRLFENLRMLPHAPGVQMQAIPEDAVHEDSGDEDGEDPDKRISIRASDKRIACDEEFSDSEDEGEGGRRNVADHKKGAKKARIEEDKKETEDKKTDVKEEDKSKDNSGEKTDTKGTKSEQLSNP
T4 sequence (Q13547 whole entry): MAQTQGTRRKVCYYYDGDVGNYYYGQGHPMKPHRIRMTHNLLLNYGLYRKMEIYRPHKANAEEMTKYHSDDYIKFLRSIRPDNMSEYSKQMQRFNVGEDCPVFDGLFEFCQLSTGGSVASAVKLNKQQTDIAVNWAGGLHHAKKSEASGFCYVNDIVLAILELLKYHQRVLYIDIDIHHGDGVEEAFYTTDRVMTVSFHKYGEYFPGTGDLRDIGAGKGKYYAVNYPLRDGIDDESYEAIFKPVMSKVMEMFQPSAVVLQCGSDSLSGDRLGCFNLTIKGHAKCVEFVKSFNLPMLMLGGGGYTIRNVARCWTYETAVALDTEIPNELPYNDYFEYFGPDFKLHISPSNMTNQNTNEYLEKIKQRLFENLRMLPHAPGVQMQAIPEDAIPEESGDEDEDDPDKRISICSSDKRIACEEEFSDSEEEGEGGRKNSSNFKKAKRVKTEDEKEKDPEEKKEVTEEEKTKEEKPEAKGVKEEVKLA
Histone deacetylase 3, sequence (O15379 whole entry): as the sequence (O15379 whole entry, the tested form may be a part) above

SMILES	IC50 (Histone deacetylase 2 [3])	IC50 [4]	IC50 [5]	IC50 (Histone deacetylase 1 [6])	fold induction at 0.5 µM (cells [1])	fold induction at 1 µM (cells [2])	Papp at 18 h, 50 µM [7]	CC50 at 72 h [8]	fold induction at 0.1 µM (cells [10])	further results
CCCc1nn(C)c2c(=O)[nH]c(-c3cc(Cc4ccc(C(=O)NO)cc4)ccc3OCC)nc12	3.86 µM	0.062 µM	0.048 µM	0.673 µM	3.2	6.5	21.6 nm/s	14.2 µM	1.1	IC50 [9]: 1.35 µM
CCCc1nc(C)c2c(=O)[nH]c(-c3cc(CC4CC(C(=O)NO)C4)ccc3OCC)nn12 (centres undefined)	–	–	–	–	–	–	–	–	–	IC50 [11]: 0.005 µM; IC50 [12]: 0.11 µM; IC50 (Histone deacetylase 1 [13]): 0.286 µM; IC50 (Histone deacetylase 3): 0.854 µM; IC50 (Histone deacetylase 2 [14]): 1.26 µM
CCCc1nc(C)c2c(=O)[nH]c(-c3cc(Cc4ccc(C(=O)NO)cc4)ccc3OCC)nn12	5.19 µM	0.256 µM	0.013 µM	1.83 µM	0.9	1.3	18.6 nm/s	26.7 µM	0.4	–
CCCc1nn(C)c2c(=O)[nH]c(-c3cc(Cc4ccc(C(=O)NO)c(F)c4)ccc3OCC)nc12	> 20 µM	0.142 µM	0.031 µM	1.11 µM	2.7	1.4	28.4 nm/s	3.51 µM	2	–
CCCc1nn(C)c2c(=O)[nH]c(-c3cc(Cc4ccc(C(=O)NO)cc4OC)ccc3OCC)nc12	> 20 µM	> 20 µM	0.047 µM	> 20 µM	–	–	–	–	–	–
CCCc1nn(C)c2c(=O)[nH]c(-c3cc(Cc4ccc(CC(=O)NO)cc4)ccc3OCC)nc12	> 20 µM	0.162 µM	0.015 µM	> 20 µM	–	–	29.4 nm/s	5.49 µM	–	IC50 [9]: > 20 µM
CCCc1nn(C)c2c(=O)[nH]c(-c3cc(-c4ccc(CC(=O)NO)cc4)ccc3OCC)nc12	> 20 µM	0.815 µM	0.01 µM	> 20 µM	0.8	1.2	19.7 nm/s	15.4 µM	0.6	–
CCCc1nn(C)c2c(=O)[nH]c(-c3cc([C@H]4CC[C@@H](C(=O)NO)CC4)ccc3OCC)nc12	> 20 µM	0.048 µM	0.053 µM	0.937 µM	1.8	5.4	16.8 nm/s	16 µM	0.7	–
CCCc1nc(C)c2c(=O)[nH]c(-c3cc(S(=O)(=O)N4CCN(CC)CC4)ccc3OCC)nn12	–	–	–	–	–	–	21.4 nm/s	> 100 µM	–	–
CCCc1nn(C)c2c(=O)[nH]c(-c3cc(Cc4ccc(C(=O)NO)c(OC)c4)ccc3OCC)nc12	> 20 µM	> 20 µM	0.144 µM	> 20 µM	–	–	–	–	–	–
CCCc1nn(C)c2c(=O)[nH]c(-c3cc(-c4ccc(C(=O)NO)s4)ccc3OCC)nc12	4.8 µM	0.037 µM	0.007 µM	0.387 µM	2.5	2.7	28.2 nm/s	2.18 µM	1.1	–
CCCc1nn(C)c2c(=O)[nH]c(-c3cc(Cc4ccc(C(=O)NO)cc4F)ccc3OCC)nc12	14.6 µM	0.087 µM	0.149 µM	2.03 µM	1.1	1.6	37 nm/s	16.5 µM	0.9	–
CN1CCc2c(c3ccccc3n2Cc2ccc(C(=O)NO)cc2)C1 [TUBASTATIN A]	–	–	–	–	–	–	17.7 nm/s	[…]	–	inhibition (INH) [15]: Not Active
CCCc1nc(C)c2c(=O)[nH]c(-c3cc(Cc4ccc(C(=O)NO)s4)ccc3OCC)nn12	4.39 µM	0.098 µM	0.003 µM	0.793 µM	0.9	0.8	16 nm/s	6.94 µM	0.7	–
CCCc1nn(C)c2c(=O)[nH]c(-c3cc(C(OC)c4ccc(C(=O)NO)cc4)ccc3OCC)nc12 (centres undefined)	1.11 µM	0.077 µM	0.02 µM	0.357 µM	–	–	–	–	–	–
CCCc1nn(C)c2c(=O)[nH]c(-c3cc(-c4ccc(C(=O)NO)cc4)ccc3OCC)nc12	2.55 µM	0.042 µM	0.001 µM	0.326 µM	1.7	3.6	26.8 nm/s	8.83 µM	0.8	–
CCCc1nn(C)c2c(=O)[nH]c(-c3cc(S(=O)(=O)N4CCN(C)CC4)ccc3OCC)nc12	–	–	–	–	–	–	–	> 100 µM	–	–
CCCc1nn(C)c2c(=O)[nH]c(-c3cc(CC4CC(C(=O)NO)C4)ccc3OCC)nc12 (centres undefined)	–	–	–	–	–	–	–	–	–	IC50 [16]: 1.8 µM

Second part, led by results:

IC50 (Histone deacetylase 2 [3])	IC50 [4]	IC50 [5]	IC50 (Histone deacetylase 1 [6])	SMILES	fold induction at 0.5 µM (cells [1])	fold induction at 1 µM (cells [2])	Papp at 18 h, 50 µM [7]	CC50 at 72 h [8]	fold induction at 0.1 µM (cells [10])	further results
> 20 µM	1.18 µM	0.036 µM	7.2 µM	CCCc1nn(C)c2c(=O)[nH]c(-c3cc(N4CCC(C(=O)NO)CC4)ccc3OCC)nc12	–	–	–	–	–	–
0.799 µM	0.192 µM	0.003 µM	0.276 µM	CCCc1nn(C)c2c(=O)[nH]c(-c3cc(C(=O)c4ccc(C(=O)NO)s4)ccc3OCC)nc12	–	–	–	–	–	–
> 20 µM	0.066 µM	0.002 µM	0.49 µM	CCCc1nn(C)c2c(=O)[nH]c(-c3cc(Nc4ccc(C(=O)NO)cc4)ccc3OCC)nc12	–	–	–	–	–	–
17.5 µM	0.168 µM	0.003 µM	2.23 µM	CCCc1nn(C)c2c(=O)[nH]c(-c3cc(Cc4ccc(C(=O)NO)o4)ccc3OCC)nc12	–	–	–	–	–	IC50 [9]: > 20 µM
> 20 µM	0.217 µM	0.014 µM	1.81 µM	CCCc1nn(C)c2c(=O)[nH]c(-c3cc(C4=CCC(CC(=O)NO)CC4)ccc3OCC)nc12 (centres undefined)	–	–	–	–	–	–
1.11 µM	0.089 µM	0.01 µM	0.335 µM	CCCc1nn(C)c2c(=O)[nH]c(-c3cc(C(O)c4ccc(C(=O)NO)cc4)ccc3OCC)nc12 (centres undefined)	–	–	–	–	–	–
11.4 µM	0.033 µM	0.079 µM	1.08 µM	CCCc1nn(C)c2c(=O)[nH]c(-c3cc(OCc4ccc(C(=O)NO)cc4)ccc3OCC)nc12	–	–	–	–	–	–
> 20 µM	0.34 µM	0.027 µM	2.88 µM	CCCc1nn(C)c2c(=O)[nH]c(-c3cc(C4=CCC(C(=O)NO)CC4)ccc3OCC)nc12 (centres undefined)	–	–	–	–	–	–
> 20 µM	3.11 µM	0.146 µM	8.38 µM	CCCc1nn(C)c2c(=O)[nH]c(-c3cc(C4CCC(C(=O)NO)CC4)ccc3OCC)nc12 (centres undefined)	–	–	–	–	–	–
> 20 µM	5.44 µM	0.19 µM	10.2 µM	CCCc1nn(C)c2c(=O)[nH]c(-c3cc([C@H]4CC[C@H](C(=O)NO)CC4)ccc3OCC)nc12	–	–	–	–	–	–
